Values after ≈ are worked out from the molar mass of the structure shown. Active and inactive are the calls of the source. No cut-off for these calls is given here.
Legend:
[1] = Solubility of the compound by laser nephelometry; format: physicochemical
[2] = target: T1, Tubulin (Homo sapiens) (UniProt P68371+Q9H4B7+P0DPH7+P68366+Q13509+Q71U36+P04350+Q3ZCM7+P07437+P68363+Q9BQE3+Q6PEY2+Q13885+Q9BVA1+Q9BUF5); test: Inhibition of microtubule (unknown origin) polymerization at 25 uM by fluorescence- based assay relative to control; format: protein-complex assay
[3] = target: T1, Tubulin (Homo sapiens); test: Induction of microtubule organization changes in human Hela cells assessed as decrease in spindle length at GI50 concentration incubated for 4 hrs by inverted microscopy; format: cell-based
[4] = Therapeutic index, ratio of GI50 for human PNT1A cells to GI50 for human HeLa cells; format: toxicity; settings: PNT1A cells and HeLa cells, read-out: TI
[5] = test system: HeLa; test: Antiproliferative activity against human HeLa cells assessed as reduction in cell viability incubated for 48 hrs by MTT assay; format: functional
[6] = test system: HeLa; test: Induction of apoptosis in human HeLa cells assessed as total number of cells died at 20 uM measured upto 30 hrs by Annexin V labelling method relative to control; format: functional
[7] = test system: HeLa; test: Antimitotic effect in human HeLa cells expressing EGFP-tubulin assessed as chromosome congression defect by measuring correcting the syntelic attachment at 7.5 nM incubated for 4 hrs by live-cell imaging/inverted microscopy; format: functional, cell-based
[8] = test system: HeLa; test: Antimitotic effect in human HeLa cells expressing EGFP-tubulin assessed as chromosome congression defect by measuring mitotic exit/cell death at 7.5 nM incubated for 4 hrs by immunolabelling based live-cell imaging/inverted microscopy; format: functional
[9] = test system: HeLa; test: Antimitotic effect in human HeLa cells expressing EGFP-tubulin assessed as chromosome congression defect by measuring progressing through mitosis to prolonged pro-metaphase arrest at 7.5 nM incubated for 4 hrs by immunolabelling based live-cell imaging/inverted microscopy; format: functional

C#CCCCc1nc(=O)c2c(-c3ccccc3)c(C(=O)c3ccc(OCCN4CCCC4)cc3)[nH]c2[nH]1
solubility [1]: Soluble

C#CCCCc1nc(=O)c2c(-c3ccccc3)c(C(=O)c3ccc(OCCN4CCOCC4)cc3)[nH]c2[nH]1
solubility [1]: Soluble
inhibition [2]: 100%
Activity [3]: Active

C#CCCCc1nc(=O)c2c(-c3ccccc3)c(C(=O)c3ccc(N4CCOCC4)cc3)[nH]c2[nH]1
selectivity ratio [4]: 2

C#CCCCc1nc(=O)c2c(-c3ccccc3)c(C(=O)c3ccccc3)[nH]c2[nH]1
inhibition [2]: 100%

C#CCCCc1nc(=O)c2c(-c3cccc(Br)n3)c(C(=O)c3ccc(OCCOCC)cc3)[nH]c2[nH]1
GI50 [5]: 22.4 nM

C#CCCCc1nc(=O)c2c(-c3cccc(F)c3)c(C(=O)c3ccc(OCCOCC)cc3)[nH]c2[nH]1
solubility kinetic [1]: 14 µM (≈ 6.83 µg/mL)
inhibition [2]: 100%
selectivity ratio [4]: 2
Activity [6]: 87%
Activity [3]: Active
GI50 [5]: 16 nM

C#CCCCc1nc(=O)c2c(-c3cc(F)cc(F)c3)c(C(=O)c3ccc(OCCOCC)cc3)[nH]c2[nH]1
solubility kinetic [1]: 14 µM (≈ 7.08 µg/mL)
Activity [6]: 85%
Activity [3]: Active

C#CCCCc1nc(=O)c2c(-c3ccccc3)c(C(=O)c3ccc(OCCOCC)cc3)[nH]c2[nH]1
solubility kinetic [1]: 14 µM (≈ 6.57 µg/mL)
inhibition [2]: 100%
Activity [7]: Active
selectivity ratio [4]: 2
Activity [3]: Active
Activity [8]: Active
Activity [9]: Active

Source: ChEMBL document CHEMBL5512693, “Improved Rigidin-Inspired Antiproliferative Agents with Modifications on the 7-Deazahypoxanthine C7/C8 Ring Systems” (J Med Chem, 2024)
